Reference: publication PMC7898037, “Improving mitochondria and ER stability helps eliminate upper motor neuron degeneration that occurs due to mSOD1 toxicity and TDP‐43 pathology” (Clinical and Translational Medicine, 2021)

Experiments:
[1] = system: hSOD1^G93A‐UeGFP mice; experiment: Hanging wire test (max 60 s), hSOD1^G93A‐UeGFP mice; format: in vivo; parameters: Mean Diff. (wire hanging), vehicle vs. NU-9 / Mean (wire hanging): unit not given here; details: for Mean Diff. (wire hanging), vehicle vs. NU-9: hSOD1G93A-UeGFP vehicle vs. NU-9 100 mg/kg/day; for wire hanging, Average / Mean (wire hanging): hSOD1G93A-UeGFP
Procedure: hSOD1^G93A‐UeGFP, prpTDP‐43^A315T‐UeGFP and WT‐UeGFP mice were weighed and the required NU‐9 dose per weight was calculated (20 or 100 mg/kg), which was administered once daily by oral gavage, starting at postnatal day (P)60 and continuing until P120. Animals from the untreated group received the vehicle (NMP and olive oil) only. For oral administration purposes, 20 ga × 38 mm plastic feeding tubes were used (Instech Laboratories, Inc). The gavage tip was inserted into the mouth directly over the tongue and into the pharynx. While observing the swallowing reflex, the tip was safely and smoothly slid into the esophagus. Once the administration was completed, the gavage tip was pulled straight out.
Behavior data were collected from hSOD1^G93A‐UeGFP and WT‐UeGFP mice (starting at P60 and every 7 days until P116) and from prpTDP‐43^A315T‐UeGFP mice (at P60, P90, and P120) with the following number of mice for each group: WT‐UeGFP vehicle (n = 10), hSOD1^G93A‐UeGFP vehicle (n = 6), WT‐UeGFP 20 mg/kg/day NU‐9 (n = 5), hSOD1^G93A‐UeGFP 20 mg/kg/day NU‐9 (n = 7), WT‐UeGFP 100 mg/kg/day NU‐9 (n = 11), hSOD1^G93A‐UeGFP 100 mg/kg/day NU‐9 (n = 9), prpTDP‐43^A315T‐UeGFP untreated (n ≥ 3), and prpTDP‐43^A315T‐UeGFP 100 mg/kg/day NU‐9 (n = 4) (Table S3).
Mice were placed on a wire mesh, which was then inverted and suspended above the home cage; the time when the animal fell was recorded. This test was performed three times for a maximum of 60 s each session, with a 1‐min rest period between each trial. The average performance for each session is presented as the average of the three trials.

[2] = system: hERG channel; details: cited from earlier work
[3] = system: cytochrome P450s; details: cited from earlier work

C[C@H](Oc1cc(C(F)(F)F)cc(C(F)(F)F)c1)C1CC(=O)CC(=O)C1 [NU‐9]
Mean Diff. (wire hanging), vehicle vs. NU-9 ([1]; P102): -10.96
Mean Diff. (wire hanging), vehicle vs. NU-9 ([1]; P109): -14.67
Mean Diff. (wire hanging), vehicle vs. NU-9 ([1]; P116): -28.54
wire hanging, Average ([1]; NU-9 20 mg/kg/day po, P60): 55.1905 s
wire hanging, Average ([1]; NU-9 20 mg/kg/day po, P67): 51.7143 s
wire hanging, Average ([1]; NU-9 20 mg/kg/day po, P74): 55.2381 s
wire hanging, Average ([1]; NU-9 20 mg/kg/day po, P81): 54.0952 s
wire hanging, Average ([1]; NU-9 20 mg/kg/day po, P88): 52.9524 s
wire hanging, Average ([1]; NU-9 20 mg/kg/day po, P95): 54.8095 s
wire hanging, Average ([1]; NU-9 20 mg/kg/day po, P102): 43 s
wire hanging, Average ([1]; NU-9 20 mg/kg/day po, P109): 37.4762 s
wire hanging, Average ([1]; NU-9 20 mg/kg/day po, P116): 27.3333 s
Mean (wire hanging) ([1]; NU-9 20 mg/kg/day, P60): 55.19
Mean (wire hanging) ([1]; NU-9 20 mg/kg/day, P67): 51.71
Mean (wire hanging) ([1]; NU-9 20 mg/kg/day, P74): 55.24
Mean (wire hanging) ([1]; NU-9 20 mg/kg/day, P81): 54.1
Mean (wire hanging) ([1]; NU-9 20 mg/kg/day, P88): 52.95
Mean (wire hanging) ([1]; NU-9 20 mg/kg/day, P95): 54.81
wire hanging, Average ([1]; NU-9 100 mg/kg/day po, P60): 60 s
wire hanging, Average ([1]; NU-9 100 mg/kg/day po, P67): 54.6667 s
wire hanging, Average ([1]; NU-9 100 mg/kg/day po, P74): 59.2963 s
wire hanging, Average ([1]; NU-9 100 mg/kg/day po, P81): 58.1481 s
wire hanging, Average ([1]; NU-9 100 mg/kg/day po, P88): 59.6296 s
wire hanging, Average ([1]; NU-9 100 mg/kg/day po, P95): 57.2593 s
wire hanging, Average ([1]; NU-9 100 mg/kg/day po, P102): 53.2963 s
wire hanging, Average ([1]; NU-9 100 mg/kg/day po, P109): 58.8889 s
wire hanging, Average ([1]; NU-9 100 mg/kg/day po, P116): 51.1481 s
Mean (wire hanging) ([1]; NU-9 100 mg/kg/day, P60): 60
Mean (wire hanging) ([1]; NU-9 100 mg/kg/day, P67): 54.67
Mean (wire hanging) ([1]; NU-9 100 mg/kg/day, P74): 59.3
Mean (wire hanging) ([1]; NU-9 100 mg/kg/day, P81): 58.15
Mean (wire hanging) ([1]; NU-9 100 mg/kg/day, P88): 59.63
Mean (wire hanging) ([1]; NU-9 100 mg/kg/day, P95): 57.26
hanging wire test, latency to fall ([1]; hSOD1^G93A‐UeGFP mice, 100 mg/kg/day, P102): 53.3 ± 2.9 s
inhibition of the hERG channel [2]: little inhibition
hERG antagonism ([2]; up to 30 µM): No inhibition up to 30 µM
CYP inhibition ([3]; 5 CYPs, at 3 µM): 5 CYPs; <10% at 3 µM
inhibition of cytochrome P450s [3]: little inhibition
